≈ marks a conversion by molar mass, not a printed value. Like-named read-outs stand apart in the source and are kept apart here.
Assays:
[1] = Cytotoxicity by neutral red dye uptake, A549 cells; settings: human
[2] = Cytotoxicity by neutral red dye uptake, MA-104 cells; settings: African green monkey, Neutral Red IC50 (cytotoxic)
[3] = test system: Respiratory Syncytial Virus; experiment: microbe, parasite or virus in culture; type: cell-based; settings: human respiratory syncytial virus, MA104; read-out: Neutral Red EC50
in vitro [4] = settings: African green monkey
Measles Virus [5] = experiment: microbe, parasite or virus in culture; type: cell-based; settings: for EC50: Measles morbillivirus, BSC-1, Measles Virus, read-out: CPI Inhibition EC50
in vitro [6] = settings: African green monkey; remark: listed apart in the source
[7] = test system: Respiratory Syncytial Virus; experiment: microbe, parasite or virus in culture; type: cell-based; settings: human respiratory syncytial virus, MA104; read-out: CPE Inhibition EC50
[8] = test system: Influenza A (H1N1) Texas/36/91; experiment: microbe, parasite or virus in culture; type: cell-based, influenza A virus; settings: Influenza A virus, MDCK; Influenza A (H1N1) Texas/36/91; read-out: CPE Inhibition EC50
Hepatitis B Virus (HBV) = experiment: Inhibition of HBV replication in 2.2.15 cells, extracellular (virion) HBV DNA; settings: for anti-HBV activity (in words): 2.2.15 cells; for EC50 / EC90: Hepatitis B virus, 216 h; for EC50: read-out: EC50 (50% effective dose), HBV Virion, 2.2.15 cells, extracellular (virion) HBV DNA, 9 days treatment; for EC90: read-out: EC90 (90% effective dose), HBV Virion, 2.2.15 cells, extracellular (virion) HBV DNA, 9 days treatment;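 as to all read-outs here: extracellular virion HBV DNA in culture medium measured by slot blot hybridization with a 32P-labeled HBV probe, quantified against HBV DNA standards, after 9 days of daily dosing, compared with day 0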
HSV-2 = HSV-2 CPE inhibition in HFF cells; settings: for HSV-2 SI (CC50/EC50): HFF Cells; for EC50: Human alphaherpesvirus 2, HFF, read-out: HSV-2 CPE Inhibition EC50
Adenovirus Type 5 [9] = experiment: Adenovirus type 5 neutral red dye uptake in A549 cells; type: cell-based; settings: Human mastadenovirus C, A549; Adenovirus Type 5; read-out: Neutral Red EC50
[10] = test system: Influenza A (H1N1) Texas/36/91; experiment: microbe, parasite or virus in culture; type: cell-based, influenza A virus; settings: Influenza A virus, MDCK; Influenza A (H1N1) Texas/36/91; read-out: Neutral Red EC50
Measles Virus [11] = experiment: Measles virus neutral red dye uptake in BSC-1 cells; type: cell-based; settings: Measles morbillivirus, BSC-1
Influenza B Panama/45/90 [12] = experiment: microbe, parasite or virus in culture; type: cell-based; settings: Influenza B virus, MDCK, read-out: Neutral Red EC50
[13] = Cytotoxicity by neutral red dye uptake, BSC-1 cells; settings: African green monkey
[14] = test system: Parainfluenza Type 3 Virus; experiment: organism not typed; type: cell-based; settings: MA104; Parainfluenza Type 3 Virus; read-out: CPI Inhibition EC50
HIV-1 RT = molecular target: T1, HIV-1 RT (Human immunodeficiency virus type 1 group M subtype B, UniProt P03366); experiment: Anti-HIV-1 RT assay (recombinant enzyme); type: biochemical; settings: for inhibition at 200 µg/mL: read-out: Anti-HIV-1 RT % Inhibition at 200 μg/ml; for Anti-HIV-1 RT IC50: values in parentheses or in words
T1 construct: made in house; host or cells: Escherichia coli

in vitro [15] = settings: human
in vitro [16] = settings: dog, Neutral Red IC50 (cytotoxic)
Influenza B Panama/45/90 [17] = experiment: microbe, parasite or virus in culture; type: cell-based; settings: Influenza B virus, MDCK; Influenza B Panama/45/90; read-out: CPE Inhibition EC50
VZV = VZV plaque reduction assay in HFF cells; settings: for VZV SI (CC50/EC50): HFF Cells; for EC50: Human alphaherpesvirus 3, HFF, read-out: VZV Plaque Reduction EC50
[18] = test system: Parainfluenza Type 3 Virus; experiment: organism not typed; type: cell-based; settings: MA104, read-out: Neutral Red EC50
Adenovirus Type 5 [19] = experiment: microbe, parasite or virus in culture; type: cell-based; settings: Human mastadenovirus C, A549, read-out: CPE Inhibition EC50
HSV-1 = HSV-1 CPE inhibition in HFF cells; settings: for HSV-1 SI (CC50/EC50): HFF Cells; for EC50: Human alphaherpesvirus 1, HFF, read-out: HSV-1 CPE Inhibition EC50
[20] = test system: Influenza A (H3N2) Beijing/32/92; experiment: microbe, parasite or virus in culture; type: cell-based, influenza A virus; settings: Influenza A virus, MDCK; Influenza A (H3N2) Beijing/32/92; read-out: Neutral Red EC50
[21] = Cytotoxicity (CC50) in HFF cells in the herpes virus tests; settings: human
in vitro [22] = settings: dog
HCMV = HCMV CPE inhibition in HFF cells; settings: for HCMV SI (CC50/EC50): HFF Cells; for EC50: Human betaherpesvirus 5, HFF, read-out: HCMV CPE Inhibition EC50
[23] = test system: Influenza A (H3N2) Beijing/32/92; experiment: microbe, parasite or virus in culture; type: cell-based, influenza A virus; settings: Influenza A virus, MDCK; Influenza A (H3N2) Beijing/32/92; read-out: CPE Inhibition EC50
HFF Cells = experiment: Cytotoxicity (CC50) in HFF cells in the herpes virus tests; settings: HFF Cells, HSV-2 test
[24] = Parainfluenza Type 3 Virus test
[25] = Respiratory Syncytial Virus test
[26] = CPE Inhibition IC50 (cytotoxic), Respiratory Syncytial Virus test
[27] = CPI Inhibition IC50 (cytotoxic), Parainfluenza Type 3 Virus test
[28] = CPE Inhibition IC50 (50% cell inhibitory (cytotoxic) concentration), Influenza A (H1N1) test
[29] = CPE Inhibition IC50 (cytotoxic), Influenza A (H3N2) test
[30] = CPE Inhibition IC50 (cytotoxic), Influenza B test

O=C1CC(c2ccc(O)cc2)Oc2cc(O)c(-c3c(O)cc4c(c3O)C(=O)CC(c3ccc(O)cc3)O4)c(O)c21 (stereo not shown) [Succedaneaflavanone (11), succedaneaflavanone]
IC50 [1]: 27 µg/mL (≈ 49.8 µM) | IC50 [2, 24]: ~29 µg/mL (≈ 53.5 µM) | IC50 [2, 25]: ~10 µg/mL (≈ 18.4 µM) | EC50 [3]: ~16 µg/mL (≈ 29.5 µM) | IC50 (in vitro [4]): < 23 µg/mL | EC50 (Measles Virus [5]): ~32 µg/mL (≈ 59 µM) | IC50 (in vitro [6]; [26]): ~13 µg/mL (≈ 24 µM) | IC50 (in vitro [6]; [27]): ~22 µg/mL (≈ 40.6 µM) | EC50 [7]: > 10 µg/mL | EC50 [8]: > 3.2 µg/mL | anti-HBV activity (in words) (Hepatitis B Virus (HBV)): inactive | anti-HBV activity (in words) (Hepatitis B Virus (HBV); listed as succendaneaflavanone): little or no anti-HBV activity | EC50 (Hepatitis B Virus (HBV)): > 100 µM | EC90 (Hepatitis B Virus (HBV)): > 100 µM | HSV-2 SI (CC50/EC50) (HSV-2): <3.0 | EC50 (HSV-2): > 20 µg/mL | EC50 (Adenovirus Type 5 [9]): 19 µg/mL (≈ 35 µM) | EC50 [10]: 5.2 µg/mL (≈ 9.59 µM) | EC50 (Measles Virus [11]): < 12 µg/mL | EC50 (Influenza B Panama/45/90 [12]): 2.2 µg/mL (≈ 4.06 µM) | IC50 [13]: < 20 µg/mL | EC50 [14]: > 10 µg/mL | activity against HIV-1 RT (in words) (HIV-1 RT): completely inactive | inhibition at 200 µg/mL (HIV-1 RT): 22.1% | Anti-HIV-1 RT IC50 (HIV-1 RT): Inactive | IC50 (in vitro [15]): 22 µg/mL (≈ 40.6 µM) | IC50 (in vitro [16]; Influenza A (H1N1) test): 5 µg/mL (≈ 9.22 µM) | IC50 (in vitro [16]; Influenza A (H3N2) test): 12 µg/mL (≈ 22.1 µM) | IC50 (in vitro [16]; Influenza B test): 7 µg/mL (≈ 12.9 µM) | EC50 (Influenza B Panama/45/90 [17]): 0.97 µg/mL (≈ 1.79 µM) | VZV SI (CC50/EC50) (VZV): < 3 | VZV SI (CC50/EC50) (VZV; listed as Succedaneaflavone (11)): <3.0 | EC50 (VZV): > 20 µg/mL | EC50 [18]: 23 µg/mL (≈ 42.4 µM) | EC50 (Adenovirus Type 5 [19]): 10 µg/mL (≈ 18.4 µM) | HSV-1 SI (CC50/EC50) (HSV-1): <3.0 | EC50 (HSV-1): > 20 µg/mL | EC50 [20]: 12 µg/mL (≈ 22.1 µM) | CC50 at 3 days [21]: 60.7 µg/mL (≈ 112 µM) | CC50 at 10 days [21]: 60 µg/mL (≈ 111 µM) | CC50 at 14 days [21]: 55.5 µg/mL (≈ 102 µM) | IC50 (in vitro [22]; [28]): 4.9 µg/mL (≈ 9.03 µM) | IC50 (in vitro [22]; [29]): 12 µg/mL (≈ 22.1 µM) | IC50 (in vitro [22]; [30]): 15 µg/mL (≈ 27.6 µM) | HCMV SI (CC50/EC50) (HCMV): <2.7 | EC50 (HCMV): > 20 µg/mL | EC50 [23]: > 10 µg/mL

O=C1CC(c2ccc(O)cc2)Oc2cc(O)c(-c3c(O)cc(O)c4c3OC(c3ccc(O)cc3)CC4=O)c(O)c21 (stereo not shown) [Rhusflavanone (9), rhusflavanone]
IC50 [1]: 15 µg/mL (≈ 27.6 µM) | IC50 [2, 24]: 30 µg/mL (≈ 55.3 µM) | IC50 [2, 25]: 20 µg/mL (≈ 36.9 µM) | EC50 [3]: 27 µg/mL (≈ 49.8 µM) | IC50 (in vitro [4]): 21 µg/mL (≈ 38.7 µM) | activity against measles virus (in words) (Measles Virus [5]): some slight activity | EC50 (Measles Virus [5]): 14 µg/mL (≈ 25.8 µM) | IC50 (in vitro [6]; [26]): 18 µg/mL (≈ 33.2 µM) | IC50 (in vitro [6]; [27]): 47 µg/mL (≈ 86.6 µM) | EC50 [7]: > 10 µg/mL | EC50 [8]: > 10 µg/mL | anti-HBV activity (in words) (Hepatitis B Virus (HBV); listed as rhusflavanone): inactive | anti-HBV activity (in words) (Hepatitis B Virus (HBV); listed as rhusflavanone (9)): little or no anti-HBV activity | EC50 (Hepatitis B Virus (HBV)): > 100 µM | EC90 (Hepatitis B Virus (HBV)): > 100 µM | activity against HSV-2 (in words) (HSV-2): active | HSV-2 SI (CC50/EC50) (HSV-2): >6.4 | EC50 (HSV-2): 15.7 µg/mL (≈ 28.9 µM) | EC50 (Adenovirus Type 5 [9]): 33 µg/mL (≈ 60.8 µM) | EC50 [10]: 24 µg/mL (≈ 44.2 µM) | EC50 (Measles Virus [11]): 5 µg/mL (≈ 9.22 µM) | IC50 [13]: 40 µg/mL (≈ 73.7 µM) | EC50 [14]: > 100 µg/mL | activity against HIV-1 RT (in words) (HIV-1 RT): completely inactive | inhibition at 200 µg/mL (HIV-1 RT): 14.1% | Anti-HIV-1 RT IC50 (HIV-1 RT): Inactive | IC50 (in vitro [15]): 47 µg/mL (≈ 86.6 µM) | IC50 (in vitro [16]; Influenza A (H1N1) test): 26 µg/mL (≈ 47.9 µM) | IC50 (in vitro [16]; Influenza A (H3N2) test): 31 µg/mL (≈ 57.1 µM) | EC50 (Influenza B Panama/45/90 [17]): 4.1 µg/mL (≈ 7.56 µM) | VZV SI (CC50/EC50) (VZV): <4 | EC50 (VZV): > 4 µg/mL | EC50 [18]: 85 µg/mL (≈ 157 µM) | EC50 (Adenovirus Type 5 [19]): 56 µg/mL (≈ 103 µM) | HSV-1 SI (CC50/EC50) (HSV-1): 0 | EC50 (HSV-1): > 100 µg/mL | EC50 [20]: 31 µg/mL (≈ 57.1 µM) | CC50 at 3 days [21]: > 100 µg/mL | CC50 at 10 days [21]: 16 µg/mL (≈ 29.5 µM) | CC50 at 14 days [21]: 13.7 µg/mL (≈ 25.3 µM) | HSV-2 CPE Inhibition CC50 (HFF Cells): >100 µg/mL | IC50 (in vitro [22]; [28]): 8.2 µg/mL (≈ 15.1 µM) | IC50 (in vitro [22]; [29]): 24 µg/mL (≈ 44.2 µM) | IC50 (in vitro [22]; [30]): 38 µg/mL (≈ 70 µM) | HCMV SI (CC50/EC50) (HCMV): <3.4 | EC50 (HCMV): > 4 µg/mL | EC50 [23]: > 32 µg/mL

Reference: patent publication US6399654B1, “Biflavanoids and derivatives thereof as antiviral agents” (priority 1995, dated 2002)
